Measured values published in patent US4684719A, “α,α-trehalose fatty acid diester derivative” (SS Pharmaceutical Co., Ltd., priority 1984, dated 1987).
Converted amounts (≈) assume the structure as drawn.

What was measured:
Leukemia L-5178Y cells = experiment: Cell-killing activities (leukemia L-5178Y cells); assay type: cell-based; settings: Mus musculus, L5178Y; 48 hours, 37° C., 5% CO2; live cells counted microscopically, probit diagram method
Experimental: (2) Cell-killing activities:
Leukemia L-5178Y cells were provided to a concentration of 2×10^5cells/ml in PRMI 1640 culture medium which contained 10% of bovine fetus albumin. To portions of the above-prepared culture medium, the compound of this invention was added to concentrations 3.125, 6.25, 12.5, 25, 50, 100 and 300 μg/ml respectively. After culturing them for 48 hours in a 5% CO2 incubator of 37° C., the numbers of live cells on respective portions of the culture were counted microscopically. Percentage proliferation was determined relative to Control and 50% Inhibitory Concentration (IC50) was obtained by the probit diagram method.

Ehrlich carcinoma = experiment: Activities against Ehrlich carcinoma (antitumor effect, survival time in mice); assay type: in vivo, ICR female mice; settings: Mus musculus, ip, 720 h, intraperitoneal, once a day for 10 days, average survival time counted 30 days after implantation, read-out: Antitumor effect (T/C %)
Experimental: (1) Activities against Ehrlich carcinoma:
To 8 ICR female mice as a group, Ehrlich carcinoma cells were intraperitoneally implanted in an amount of 10^5 cells per mouse. From an elapsed time of 24 hours after the implantation, the compound (I) of this invention which was suspended in physiological saline containing 0.5% of CMC-Na was intraperitoneally administered in predetermined dosages (0.4 mg/kg, 4.0 mg/kg and 40.0 mg/kg), once a day and for 10 days.
Upon an elapsed time of 30 days after the implantation of the carcinoma, the survival time of each mouse was counted. The average survival time of Control Group (C) and that of Group (T), in which the compound of this invention was administered, were obtained respectively. Antitumor effect (T/C %) was then determined in accordance with the following equation. [formula]

SMILES	IC50 (Leukemia L-5178Y cells) [µg/mL]	response vs control in vivo at 0.4 mg/kg (Ehrlich carcinoma) [%]	response vs control in vivo at 4 mg/kg (Ehrlich carcinoma) [%]	response vs control in vivo at 40 mg/kg (Ehrlich carcinoma) [%]
CCCCCCCCCCCCCC(=O)O[C@H]1[C@H](O)[C@@H](O)[C@@H](O[C@H]2O[C@H](CO)[C@@H](OC(=O)CCCCCCCCCCCCC)[C@H](O)[C@H]2O)O[C@@H]1CO [Compound 17]	12.6 (≈ 16.5 µM)	98	203	203
CCCCCCCCCCCCCCCC(=O)O[C@H]1[C@H](O)[C@@H](O)[C@@H](O[C@H]2O[C@H](CO)[C@@H](OC(=O)CCCCCCCCCCCCCCC)[C@H](O)[C@H]2O)O[C@@H]1CO [Compound 18]	> 300	125	216	189
CCCCCC(=O)O[C@H]1[C@H](O)[C@@H](O)[C@@H](O[C@H]2O[C@H](CO)[C@@H](OC(=O)CCCCC)[C@H](O)[C@H]2O)O[C@@H]1CO [Compound 13]	> 300	127	120	103
CCCCCCCCCCCC(=O)O[C@H]1[C@H](O)[C@@H](O)[C@@H](O[C@H]2O[C@H](CO)[C@@H](OC(=O)CCCCCCCCCCC)[C@H](O)[C@H]2O)O[C@@H]1CO [Compound 16]	8.4 (≈ 11.9 µM)	102	180	225
CCCCCCCCCCCCCCCCCC(=O)O[C@H]1[C@H](O)[C@@H](O)[C@@H](O[C@H]2O[C@H](CO)[C@@H](OC(=O)CCCCCCCCCCCCCCCCC)[C@H](O)[C@H]2O)O[C@@H]1CO [Compound 19, 4,4'-di-O-stearoyl-α,α-trehalose]		98	183	198
CCCCCCCC(=O)O[C@H]1[C@H](O)[C@@H](O)[C@@H](O[C@H]2O[C@H](CO)[C@@H](OC(=O)CCCCCCC)[C@H](O)[C@H]2O)O[C@@H]1CO [Compound 14]	35.1 (≈ 59 µM)	136	117	183
CCCCCCCCCCCCCCCCCCCCCC(=O)O[C@H]1[C@H](O)[C@@H](O)[C@@H](O[C@H]2O[C@H](CO)[C@@H](OC(=O)CCCCCCCCCCCCCCCCCCCCC)[C@H](O)[C@H]2O)O[C@@H]1CO [Compound 20]		165	179	157
CCCCCCCCCC(=O)O[C@H]1[C@H](O)[C@@H](O)[C@@H](O[C@H]2O[C@H](CO)[C@@H](OC(=O)CCCCCCCCC)[C@H](O)[C@H]2O)O[C@@H]1CO [Compound 15]	11.2 (≈ 17.2 µM)	121	152	188
CCCC(=O)O[C@H]1[C@H](O)[C@@H](O)[C@@H](O[C@H]2O[C@H](CO)[C@@H](OC(=O)CCC)[C@H](O)[C@H]2O)O[C@@H]1CO [Compound 12]		141	142	114
CC(=O)O[C@H]1[C@H](O)[C@@H](O)[C@@H](O[C@H]2O[C@H](CO)[C@@H](OC(C)=O)[C@H](O)[C@H]2O)O[C@@H]1CO [Compound 11]		154	105	114
